#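 Test compounds were applied to cells in 96-well plates for 48 hours at 5 doses. The concentration for full growth arrest is given as TGI.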
# How the values were obtained:
# Experiment in all cases: NCI tumour cell line growth inhibition, 48 h
# [1] = tested on: HCT-116 colon
# [2] = tested on: LOX IMVI melanoma
# [3] = tested on: UACC-62 melanoma
# [4] = tested on: SK-MEL-2 melanoma
# [5] = tested on: A549 NSCLC
# [6] = tested on: MDA-MB-435
# [7] = tested on: SNB-19 CNS
# [8] = tested on: NCI/ADR-RES ovarian
# [9] = tested on: CAKI-1 renal
# [10] = tested on: KM12 colon
# [11] = tested on: NCI-H226 lung
# [12] = tested on: CCRF-CEM leukemia
# [13] = tested on: SNB-75 CNS
# [14] = tested on: TK-10 renal
# [15] = tested on: 786-0 renal
# [16] = tested on: PC-3 prostate
# [17] = tested on: IGROV1 ovarian
# [18] = tested on: OVCAR-8 ovarian
# [19] = tested on: SK-MEL-28 melanoma
# [20] = tested on: SR leukemia
SMILES,TGI [1],TGI [2],TGI [3],TGI [4],TGI [5],TGI [6],TGI [7],TGI [8],TGI [9],TGI [10],TGI [11],TGI [12],TGI [13],TGI [14],TGI [15],TGI [16],TGI [17],TGI [18],TGI [19],TGI [20]
COC(=O)[C@H](Cc1ccccc1)NP(=O)(OCCC#N)OCC1OC(n2cc(C)c(=O)[nH]c2=O)CC1N=[N+]=[N-] (some centres not stated),> 100 µM,> 100 µM,> 100 µM,> 100 µM,> 100 µM,> 100 µM,> 100 µM,> 100 µM,> 100 µM,> 100 µM,> 100 µM,> 100 µM,> 100 µM,> 100 µM,> 100 µM,> 100 µM,> 100 µM,> 100 µM,,
CCOC(=O)c1cc(=O)c2ccnc3c2n1CCS3,> 100 µM,> 100 µM,> 100 µM,> 100 µM,> 100 µM,> 100 µM,> 100 µM,> 100 µM,> 100 µM,> 100 µM,> 100 µM,> 100 µM,> 100 µM,> 100 µM,> 100 µM,> 100 µM,> 100 µM,> 100 µM,> 100 µM,
BrC1=CCC23CC=C(Br)[C@H]4CC2(COC3)C[C@@H]1O4 (some centres not stated),> 100 µM,> 100 µM,> 100 µM,> 100 µM,> 100 µM,,> 100 µM,,,> 100 µM,> 100 µM,79.5 µM,41.6 µM,> 100 µM,> 100 µM,,> 100 µM,> 100 µM,62.1 µM,> 100 µM
CN1Cc2cc3cc4c(cc3nc2N(C)C1)OCCO4,> 100 µM,> 100 µM,> 100 µM,> 100 µM,> 100 µM,> 100 µM,> 100 µM,> 100 µM,> 100 µM,> 100 µM,> 100 µM,> 100 µM,> 100 µM,> 100 µM,> 100 µM,> 100 µM,> 100 µM,> 100 µM,,
CN(CCNC(=O)c1nn(-c2ccccc2)c2c1Cc1ccccc1-2)CCNC(=O)c1nn(-c2ccccc2)c2c1Cc1ccccc1-2,3.13 µM,3.32 µM,3.1 µM,3.38 µM,4.93 µM,3.17 µM,4.43 µM,6.36 µM,7.28 µM,3.69 µM,,4.68 µM,3.5 µM,4.3 µM,3.08 µM,4.81 µM,3.31 µM,3.17 µM,3.24 µM,
COc1cc(C=O)cc(/C=N/n2c3ccccc3c3ccccc32)c1O,> 100 µM,> 100 µM,> 100 µM,,> 100 µM,47.5 µM,> 100 µM,,> 100 µM,> 100 µM,> 100 µM,> 100 µM,15.7 µM,> 100 µM,> 100 µM,> 100 µM,,> 100 µM,> 100 µM,> 100 µM
CCCc1cc(=O)oc2c3c(c4c(c12)OC(C)(C)CC4)O[C@@H](C)[C@H](C)[C@H]3O,22.2 µM,30 µM,21.1 µM,29.9 µM,25.7 µM,22.1 µM,30.9 µM,29.1 µM,49.7 µM,29.9 µM,31.6 µM,17.8 µM,22.5 µM,,18.1 µM,15.5 µM,32.7 µM,29.9 µM,42 µM,
O=NN1C(c2ccccc2)CC(=NO)CC1c1ccccc1 (configuration not stated),> 100 µM,> 100 µM,> 100 µM,> 100 µM,> 100 µM,> 100 µM,> 100 µM,> 100 µM,> 100 µM,> 100 µM,> 100 µM,,> 100 µM,> 100 µM,> 100 µM,> 100 µM,> 100 µM,> 100 µM,> 100 µM,
Cc1cc2c(cc1Cl)SC(NNC(=O)c1ccco1)=NS2(=O)=O,> 10 µM,> 10 µM,> 10 µM,> 10 µM,> 10 µM,> 10 µM,> 10 µM,> 10 µM,> 10 µM,> 10 µM,> 10 µM,> 10 µM,> 10 µM,> 10 µM,> 10 µM,> 10 µM,> 10 µM,> 10 µM,> 10 µM,
CC1=NN(c2cccc(Cl)c2)C(=N/c2nc3ccccc3s2)/C1=C\c1ccc(Cl)cc1,30.7 µM,34 µM,,34.2 µM,,,,50.7 µM,,,43.8 µM,96.9 µM,> 100 µM,64.3 µM,34 µM,31.3 µM,33.1 µM,39.8 µM,45.2 µM,81 µM
CCOC(=O)c1nnsc1NC(=O)Nc1ccc(Cc2ccc(NC(=O)Nc3snnc3C(=O)OCC)cc2)cc1,> 100 µM,,> 100 µM,> 100 µM,> 100 µM,> 100 µM,> 100 µM,> 100 µM,> 100 µM,> 100 µM,> 100 µM,> 100 µM,> 100 µM,> 100 µM,33.9 µM,> 100 µM,> 100 µM,76.6 µM,> 100 µM,
CN1C2=C(CC3=C1CC(C)(C)CC3=O)C(=O)CC(C)(C)C2,,> 100 µM,> 100 µM,,> 100 µM,,> 100 µM,> 100 µM,> 100 µM,> 100 µM,> 100 µM,> 100 µM,> 100 µM,> 100 µM,> 100 µM,> 100 µM,> 100 µM,> 100 µM,> 100 µM,> 100 µM
CN1CC[C@]23c4c5ccc(O)c4O[C@H]2C(O)CC[C@@]3(O)[C@H]1C5 (some centres not stated),> 100 µM,> 100 µM,> 100 µM,> 100 µM,> 100 µM,> 100 µM,> 100 µM,> 100 µM,> 100 µM,> 100 µM,> 100 µM,,,> 100 µM,> 100 µM,> 100 µM,> 100 µM,> 100 µM,> 100 µM,> 100 µM
C[C@]12CC[C@@H]3c4ccc(O)cc4CC[C@H]3[C@@H]1CC[C@@H]2OP(=O)(O)O,> 100 µM,> 100 µM,> 100 µM,> 100 µM,> 100 µM,> 100 µM,> 100 µM,> 100 µM,> 100 µM,> 100 µM,> 100 µM,> 100 µM,> 100 µM,> 100 µM,> 100 µM,> 100 µM,> 100 µM,> 100 µM,> 100 µM,
NC(=O)Nc1ccc(S(=O)(=O)Nc2ccc(S(N)(=O)=O)cc2)cc1,> 100 µM,> 100 µM,> 100 µM,> 100 µM,> 100 µM,> 100 µM,> 100 µM,> 100 µM,> 100 µM,> 100 µM,> 100 µM,> 100 µM,,> 100 µM,> 100 µM,> 100 µM,> 100 µM,> 100 µM,> 100 µM,
COc1ccc(/C=C2\NC(=S)N(/C=C3\C(=O)Oc4ccccc4C3=O)C2=O)cc1OC,> 100 µM,> 100 µM,> 100 µM,> 100 µM,> 100 µM,> 100 µM,> 100 µM,> 100 µM,> 100 µM,> 100 µM,> 100 µM,> 100 µM,> 100 µM,> 100 µM,> 100 µM,> 100 µM,> 100 µM,> 100 µM,,
Cc1ccc(Cc2n[nH]c(=O)n2Nc2ccccc2)cc1,> 100 µM,> 100 µM,> 100 µM,> 100 µM,> 100 µM,> 100 µM,> 100 µM,> 100 µM,> 100 µM,> 100 µM,> 100 µM,> 100 µM,,> 100 µM,> 100 µM,,> 100 µM,> 100 µM,> 100 µM,> 100 µM
COc1ccc(/C=C2\CCC(CNc3ccc(S(N)(=O)=O)cc3)C2=O)cc1 (configuration not stated),22.9 µM,23.8 µM,50.6 µM,> 100 µM,> 100 µM,41.3 µM,> 65.9 µM,> 100 µM,19.3 µM,31.3 µM,> 100 µM,5.98 µM,76.2 µM,34.9 µM,11.2 µM,42.2 µM,43.4 µM,35.4 µM,34.7 µM,
OCCOCCN1CCN(CCCN2c3ccccc3Sc3ccc(C(F)(F)F)cc32)CC1,20.3 µM,15.1 µM,19.5 µM,34.7 µM,27.1 µM,23.8 µM,27.8 µM,,30.5 µM,20.2 µM,37.2 µM,1.32 µM,13.6 µM,24.1 µM,31.3 µM,29.6 µM,22.2 µM,30 µM,9.55 µM,
CC1CCC2(O)C3(C)CC4(O)OC2(C1O)C1(O)C3(O)C(OC(=O)c2ccc[nH]2)C(O)(C(C)C)C41C (configuration not stated),> 100 µM,> 100 µM,> 100 µM,> 100 µM,> 100 µM,> 100 µM,> 100 µM,> 100 µM,> 100 µM,> 100 µM,> 100 µM,> 100 µM,> 100 µM,> 100 µM,> 100 µM,> 100 µM,> 100 µM,> 100 µM,> 100 µM,
O=c1cc(-c2ccccc2)[nH]c2ccc(N3CCOCC3)cc12,> 100 µM,> 100 µM,> 100 µM,> 100 µM,,> 100 µM,> 87.5 µM,> 100 µM,> 89.2 µM,0.446 µM,0.253 µM,,,> 100 µM,38.1 µM,> 100 µM,> 100 µM,> 100 µM,44.7 µM,
Cc1ccc2nc3c(=O)[nH]c(=O)nc-3n(C)c2c1C,> 100 µM,> 100 µM,> 100 µM,> 100 µM,> 100 µM,> 100 µM,> 100 µM,> 100 µM,> 100 µM,> 100 µM,> 100 µM,> 100 µM,> 100 µM,> 100 µM,> 100 µM,> 100 µM,> 100 µM,> 100 µM,> 100 µM,
CCc1cc2c(c3c1CCC3=O)CC1(Cc3ccc(C)cc3C1)C2 (configuration not stated),33.1 µM,> 100 µM,> 100 µM,67.6 µM,40.8 µM,> 100 µM,,> 100 µM,,> 100 µM,99.8 µM,34.7 µM,,> 100 µM,> 100 µM,91.7 µM,> 100 µM,> 100 µM,,
CN1CCN(C(=S)N(C(=O)c2ccc(Cl)cc2)c2ccccc2)CC1,,> 100 µM,> 100 µM,> 100 µM,> 100 µM,> 100 µM,> 100 µM,,,> 100 µM,> 100 µM,,> 100 µM,> 100 µM,> 100 µM,,> 100 µM,> 100 µM,> 100 µM,> 100 µM
O=c1cc(-c2ccccc2)c2ccccc2[nH]1,> 100 µM,> 100 µM,> 100 µM,> 100 µM,> 100 µM,,,,90.2 µM,> 100 µM,99.8 µM,> 100 µM,46.5 µM,> 100 µM,> 100 µM,,> 100 µM,> 100 µM,> 100 µM,> 100 µM
O=c1[nH]nc(-c2ccccc2)n1Nc1ccccc1,> 100 µM,> 100 µM,> 100 µM,> 100 µM,> 100 µM,> 100 µM,> 100 µM,> 100 µM,> 100 µM,> 100 µM,> 100 µM,> 100 µM,> 100 µM,> 100 µM,> 100 µM,,> 100 µM,> 100 µM,> 100 µM,> 100 µM

# From PubChem BioAssay (NCI)
